“And” between values parts separate entries of the source, which are not always exact repeats. Equal entries are not always repeated. Toxic doses and inconclusive results are not listed.
System: P388 leukemia ip, CD2F1 mice, survival T/C
Assay: NCI In Vivo Anticancer Drug Screen. Data for tumor model P388 Leukemia (intraperitoneal) in CD2F1 (CDF1) mice
Details: endpoint: median survival time, higher = longer survival
Outline: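 Mice carrying the transplanted tumor received test compound or vehicle. Survival was recorded in each group, and the value is the treated-group measurement divided by that of the vehicle-treated control group.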

[1] = dose: 50.0 mg/kg/injection, schedule: Q01DX009 (ip), vehicle: Klucel (hydroxypropylcellulose) (HPC)
[2] = dose: 100.0 mg/kg/injection, schedule: Q01DX009 (ip), vehicle: Klucel (hydroxypropylcellulose) (HPC)
[3] = dose: 50.0 mg/kg/injection, schedule: Q01DX009 (ip), vehicle: saline with Tween-80
[4] = dose: 100.0 mg/kg/injection, schedule: Q01DX009 (ip), vehicle: saline with Tween-80
[5] = dose: 200.0 mg/kg/injection, schedule: Q01DX009 (ip), vehicle: saline with Tween-80
[6] = dose: 50.0 mg/kg/injection, schedule: Q01DX005 (ip), vehicle: saline with Tween-80
[7] = dose: 100.0 mg/kg/injection, schedule: Q01DX005 (ip), vehicle: saline with Tween-80
[8] = dose: 200.0 mg/kg/injection, schedule: Q01DX005 (ip), vehicle: saline with Tween-80
[9] = dose: 200.0 mg/kg/injection, schedule: Q01DX009 (ip), vehicle: Klucel (hydroxypropylcellulose) (HPC)

For `Cc1sc([S-])n[n+]1-c1ccccc1`, the T/C (dose: 6.25 mg/kg/injection, schedule: Q01DX009 (ip), vehicle: distilled water + Tween-80) was 93 % of control, the T/C (dose: 12.5 mg/kg/injection, schedule: Q01DX009 (ip), vehicle: distilled water + Tween-80) was 90 % of control and the T/C (dose: 25.0 mg/kg/injection, schedule: Q01DX009 (ip), vehicle: distilled water + Tween-80) was 96 % of control. The T/C (dose: 50.0 mg/kg/injection, schedule: Q01DX009 (ip), vehicle: distilled water + Tween-80) was 97 % of control, the T/C (dose: 100.0 mg/kg/injection, schedule: Q01DX009 (ip), vehicle: distilled water + Tween-80) was 110 % of control and the T/C (dose: 200.0 mg/kg/injection, schedule: Q01DX009 (ip), vehicle: distilled water + Tween-80) was 105 % of control.
In the case of `O=C([CH-]C(=O)C(F)(F)F)c1ccccc1.O=C([CH-]C(=O)C(F)(F)F)c1ccccc1.O=C([CH-]C(=O)C(F)(F)F)c1ccccc1.O=C([CH-]C(=O)C(F)(F)F)c1ccccc1.[Eu+3].c1ccncc1`, the T/C [1] is reported as 113 % of control and the T/C [2] is reported as 104 % of control.
With `CCC1=CCC2C(=O)C3C(C(=O)C2C1)C1(c2ccccc2)OC3(c2ccccc2)c2ccccc21` (stereo not drawn) the T/C [3] was 95 % of control, the T/C [4] was 88 % of control and the T/C [5] was 87 % of control.
With `CC(SC(C)C(=O)N/N=C/c1c[nH]c2ccccc12)C(=O)N/N=C\c1c[nH]c2ccccc12` (stereo not drawn) the T/C [6] was 92 % of control, the T/C [7] was 93 % of control and the T/C [8] was 93 % of control.
In the case of `CC(=O)C1C(c2ccccc2)SC(c2ccccc2)CC1(C)O` (stereo not drawn), the T/C (dose: 100.0 mg/kg/injection, schedule: Q04DX002 (ip), vehicle: Klucel (hydroxypropylcellulose) (HPC)) is reported as 96 % of control, the T/C (dose: 200.0 mg/kg/injection, schedule: Q04DX002 (ip), vehicle: Klucel (hydroxypropylcellulose) (HPC)) is reported as 94 % of control and the T/C (dose: 400.0 mg/kg/injection, schedule: Q04DX002 (ip), vehicle: Klucel (hydroxypropylcellulose) (HPC)) is reported as 87 % of control.
For `COc1ccccc1N=Cc1ccc(C=Nc2ccccc2OC)cc1`, the T/C [1] was 97 % of control, the T/C [2] was 98 % of control and the T/C [9] was 101 % of control and 88 % of control.
`O=C(Sc1ccccc1)N1CCN(C(=O)Sc2ccccc2)CC1` was tested, and the T/C [1] was 100 % of control, the T/C [2] was 100 % of control and the T/C [9] was 109 % of control.
With `CCC(C)n1c(C)nc2ncn(-c3ccccc3)c2c1=O` (stereo not drawn) the T/C (dose: 50.0 mg/kg/injection, schedule: Q01DX005 (ip), vehicle: Klucel (hydroxypropylcellulose) (HPC)) was 100 % of control, the T/C (dose: 100.0 mg/kg/injection, schedule: Q01DX005 (ip), vehicle: Klucel (hydroxypropylcellulose) (HPC)) was 103 % of control and the T/C (dose: 200.0 mg/kg/injection, schedule: Q01DX005 (ip), vehicle: Klucel (hydroxypropylcellulose) (HPC)) was 105 % of control.
In the case of `NC(=S)n1nc(-c2cccs2)c(N=Nc2ccc(Cl)cc2)c1C(F)(F)F`, the T/C (dose: 60.0 mg/kg/injection, schedule: Q01DX005 (ip), vehicle: Klucel (hydroxypropylcellulose) (HPC)) is reported as 87 % of control and the T/C (dose: 120.0 mg/kg/injection, schedule: Q01DX005 (ip), vehicle: Klucel (hydroxypropylcellulose) (HPC)) is reported as 93 % of control.
For `COc1cc2nc3cc([N+](=O)[O-])ccc3c(NCCNCC(C)(C)O)c2cc1OC`, the T/C (dose: 6.25 mg/kg/injection, schedule: Q01DX005 (ip), vehicle: saline with Tween-80) was 102 % of control and 105 % of control and 96 % of control, the T/C (dose: 12.5 mg/kg/injection, schedule: Q01DX005 (ip), vehicle: saline with Tween-80) was 109 % of control and 115 % of control and 117 % of control and the T/C (dose: 25.0 mg/kg/injection, schedule: Q01DX005 (ip), vehicle: saline with Tween-80) was 117 % of control and 118 % of control and 121 % of control.
`O=C(CN1CCOCC1)c1c(-c2ccccc2)[nH]c2ccccc12` was tested, and the T/C (dose: 100.0 mg/kg/injection, schedule: Q04DX003 (ip), vehicle: saline) was 104 % of control, the T/C (dose: 200.0 mg/kg/injection, schedule: Q04DX003 (ip), vehicle: saline) was 102 % of control and the T/C (dose: 400.0 mg/kg/injection, schedule: Q04DX003 (ip), vehicle: saline) was 95 % of control.
With `N=c1oc(-c2ccccc2)cc2ccccc12` the T/C (dose: 6.25 mg/kg/injection, schedule: Q01DX005 (ip), vehicle: Klucel (hydroxypropylcellulose) (HPC)) was 104 % of control, the T/C (dose: 12.5 mg/kg/injection, schedule: Q01DX005 (ip), vehicle: Klucel (hydroxypropylcellulose) (HPC)) was 100 % of control and the T/C (dose: 25.0 mg/kg/injection, schedule: Q01DX005 (ip), vehicle: Klucel (hydroxypropylcellulose) (HPC)) was 104 % of control.
In the case of `C=CC(C)(Cl)C(Cl)/C=C/C(C=O)=C/Cl` (stereo not drawn), the T/C (dose: 1.75 mg/kg/injection, schedule: Q01DX009 (ip), vehicle: Klucel (hydroxypropylcellulose) (HPC)) is reported as 101 % of control, the T/C (dose: 3.5 mg/kg/injection, schedule: Q01DX009 (ip), vehicle: Klucel (hydroxypropylcellulose) (HPC)) is reported as 100 % of control and the T/C (dose: 7.0 mg/kg/injection, schedule: Q01DX009 (ip), vehicle: Klucel (hydroxypropylcellulose) (HPC)) is reported as 101 % of control. For the same molecule, the T/C (dose: 14.0 mg/kg/injection, schedule: Q01DX009 (ip), vehicle: Klucel (hydroxypropylcellulose) (HPC)) was 100 % of control.
`CCOC(=O)c1cnc(SCc2ccccc2)[nH]c1=O` was tested, and the T/C (dose: 100.0 mg/kg/injection, schedule: Q04DX003 (ip), vehicle: saline with Tween-80) was 100 % of control, the T/C (dose: 200.0 mg/kg/injection, schedule: Q04DX003 (ip), vehicle: saline with Tween-80) was 90 % of control and the T/C (dose: 400.0 mg/kg/injection, schedule: Q04DX003 (ip), vehicle: saline with Tween-80) was 100 % of control.
In the case of `C=C(CSCCCCCCCCCCCC)C(=O)O`, the T/C [6] is reported as 116 % of control, the T/C [7] is reported as 114 % of control and the T/C [8] is reported as 115 % of control.
With `CN(C)CCNc1ccc(N)c2sc3ccccc3c(=O)c12` the T/C (dose: 25.0 mg/kg/injection, schedule: Q01DX009 (ip), vehicle: saline with Tween-80) was 99 % of control and 92 % of control, the T/C [3] was 100 % of control and 112 % of control and 93 % of control and the T/C [4] was 112 % of control and 121 % of control.
In the case of `C=CCOc1cc2c(cc1Cc1ccc3c(c1)OCO3)OCO2`, the T/C [6] is reported as 100 % of control, the T/C [7] is reported as 100 % of control and the T/C [8] is reported as 103 % of control.
With `S1SSSSSSS1` the T/C (dose: 8.0 mg/kg/injection, schedule: Q01DX005 (ip), vehicle: Klucel (hydroxypropylcellulose) (HPC)) was 103 % of control, the T/C (dose: 16.0 mg/kg/injection, schedule: Q01DX005 (ip), vehicle: Klucel (hydroxypropylcellulose) (HPC)) was 106 % of control and the T/C (dose: 32.0 mg/kg/injection, schedule: Q01DX005 (ip), vehicle: Klucel (hydroxypropylcellulose) (HPC)) was 104 % of control. The T/C (dose: 64.0 mg/kg/injection, schedule: Q01DX005 (ip), vehicle: Klucel (hydroxypropylcellulose) (HPC)) was 100 % of control.
In the case of `CC(=O)Nc1nccs1.CC(=O)Nc1nccs1.[Cl][Pt][Cl]`, the T/C (dose: 100.0 mg/kg/injection, schedule: Q04DX002 (ip), vehicle: saline with Tween-80) is reported as 93 % of control and the T/C (dose: 200.0 mg/kg/injection, schedule: Q04DX002 (ip), vehicle: saline with Tween-80) is reported as 91 % of control.
`[Cl][Hg][CH]1CCC2OC1CC[CH]2[Hg][Cl]` (stereo not drawn) was tested, and the T/C (dose: 1.56 mg/kg/injection, schedule: Q01DX009 (ip), vehicle: saline with Tween-80) was 112 % of control, the T/C (dose: 3.12 mg/kg/injection, schedule: Q01DX009 (ip), vehicle: saline with Tween-80) was 105 % of control and 118 % of control and the T/C (dose: 6.25 mg/kg/injection, schedule: Q01DX009 (ip), vehicle: saline with Tween-80) was 121 % of control and 91 % of control. The T/C (dose: 12.5 mg/kg/injection, schedule: Q01DX009 (ip), vehicle: saline with Tween-80) was 94 % of control.
`Cc1cc(=O)c2c(ccc3[nH]c(-c4ccco4)nc32)[nH]1` was tested, and the T/C (dose: 100.0 mg/kg/injection, schedule: Q01DX001 (ip), vehicle: saline with Tween-80) was 94 % of control, the T/C (dose: 200.0 mg/kg/injection, schedule: Q01DX001 (ip), vehicle: saline with Tween-80) was 100 % of control and the T/C (dose: 400.0 mg/kg/injection, schedule: Q01DX001 (ip), vehicle: saline with Tween-80) was 92 % of control.
In the case of `O=C1C=C[C@H](O)[C@@]2(CO)O[C@@H]12`, the T/C (dose: 1.25 mg/kg/injection, schedule: Q04DX002 (ip), vehicle: saline) is reported as 103 % of control, the T/C (dose: 2.5 mg/kg/injection, schedule: Q04DX002 (ip), vehicle: saline with Tween-80) is reported as 114 % of control and the T/C (dose: 2.5 mg/kg/injection, schedule: Q04DX002 (ip), vehicle: saline) is reported as 104 % of control.
`CCOc1c(N=Nc2ccc(Cl)cc2)c(C)nn1C(=S)SC` was tested, and the T/C (dose: 7.5 mg/kg/injection, schedule: Q01DX005 (ip), vehicle: Klucel + Tween-80) was 92 % of control, the T/C (dose: 15.0 mg/kg/injection, schedule: Q01DX005 (ip), vehicle: Klucel + Tween-80) was 86 % of control and the T/C (dose: 30.0 mg/kg/injection, schedule: Q01DX005 (ip), vehicle: Klucel + Tween-80) was 86 % of control. The T/C (dose: 60.0 mg/kg/injection, schedule: Q01DX005 (ip), vehicle: Klucel + Tween-80) was 94 % of control.
In the case of `COc1cc(C=Nc2ccc(C(=O)O)cc2)ccc1N(CCCl)CCCl`, the T/C (dose: 37.5 mg/kg/injection, schedule: Q04DX003 (ip), vehicle: saline with Tween-80) is reported as 155 % of control and the T/C (dose: 50.0 mg/kg/injection, schedule: Q04DX003 (ip), vehicle: saline with Tween-80) is reported as 90 % of control.
`COC(=O)/C=C1\Sc2cc(F)ccc2NC1=O` was tested, and the T/C [3] was 92 % of control, the T/C [4] was 98 % of control and the T/C [5] was 100 % of control.

From PubChem BioAssay AID330 (DTP/NCI, 2004)
